Source: publication PMC6873674, “Inhibition of Plasmodium sporogonic stages by ivermectin and other avermectins” (Parasites & Vectors, 2019)

How the values were obtained:
[1] = tested on: P. berghei oocyst growth/maturation; test: Bioluminescence assay of oocyst growth/maturation in vitro (Day3-Day15); type: cell-based, Plasmodium berghei; conditions: mean
Method: (§1) Purified ookinetes were seeded with Drosophila melanogaster S2 cells (Drosophila Genomics Resource Center, Bloomington, USA) in a 1:10 ratio (10^4 ookinetes and 10^5 S2 cells) in Schneider’s medium (S0146, Sigma-Aldrich) supplemented with 15% FBS, penicillin/streptomycin (50 U/ml, 50 µg/ml) and gentamicin (50 µg/ml) to promote oocyst development. Oocysts were co-cultured with D. melanogaster S2 cells in flat bottom 96-well plates (Corning, New York, USA) for up to 15 days at 19 °C. One-quarter of the medium was changed 3 times per week (every 48 to 72 h), and 10^5 S2 cells were added once per week. In parallel, S2 cells were maintained at 27 °C in Schneider’s medium (S0146, Sigma-Aldrich) supplemented with 10% FBS and penicillin/streptomycin (50 U/ml, 50 µg/ml).
(§2) A bioluminescence assay was used to assess the development of the mosquito stages of PbCSGFP-Luc. In order to evaluate the effect of compounds on the development of the parasite’s mosquito stages, samples were collected at 3 different time points to determine the effect on ookinete and oocyst formation, and oocyst maturation, as previously described. The bioluminescence assay was performed using the Firefly Luciferase Assay Kit (Biotium, Hayward, USA) according to the manufacturer’s instructions, with some modifications. Briefly, the whole well contents were collected and spun down, washed with PBS, frozen in 50 µl of lysis buffer (1:5 ratio) and stored at − 20 °C until further use. Collected samples were lysed and 30 µl of the resulting supernatant were transferred into white 96-well plates. Fifty µl of D-luciferin in Firefly luciferase assay buffer (1:50 ratio) were added to the samples and parasite load was determined by measuring luminescence intensity using a microplate reader (Tecan Infinite M200, Zurich, Switzerland).
(§3) The effect of eprinomectin, abamectin, ivermectin, moxidectin, doramectin and emamectin on the Plasmodium mosquito stages was evaluated as previously described. The compounds were dissolved in dimethyl sulfoxide (DMSO) and the amount of DMSO equivalent to that present in the highest compound concentration was used as a control. The effect of 10 µM of each compound was assessed on ookinetes, and on oocyst development and maturation. Briefly, after 1 h of incubation, the compounds were added to 5 µl of infected blood cultures, and the bioluminescence intensity of the parasites on the ookinete cultures was assessed 24 h later. To assess the effect of the compounds on oocyst development and maturation, compounds were mixed with the mature ookinetes, and parasites collected after 3 days of culture or compounds were added to the oocyst culture after 3 days of culture, and parasites collected 15 days later.
(§4) Compound concentration resulting in 50% inhibition (IC50) for oocyst growth and maturation were estimated for eprinomectin, abamectin, ivermectin, moxidectin, doramectin and emamectin (assayed at 0.05, 0.5, 1, 5, 10, 25 and 50 µM) by nonlinear regression analysis.

[2] = tested on: P. berghei oocyst formation; test: Bioluminescence assay of oocyst formation in vitro (Day0-Day3); type: cell-based, Plasmodium berghei; conditions: mean
Method: as §1, §2, §3, §4

[3] = tested on: P. berghei asexual and sexual blood stages; test: In vivo activity of ivermectin against P. berghei blood stages in infected mice (flow cytometry, microscopy); parameters: species or system Plasmodium berghei (BALB/cByJ mice); conditions: single oral gavage 5 mg/kg, up to 5 days after infection
Text: Male BALB/cByJ mice (6–8 weeks-old) purchased from Charles River Laboratories Inc. (Lyon, France) were used. Two parasite lines were employed in the experimental work, a transgenic parasite line termed PbCSGFP-Luc (RMgm-152),which expresses the fusion gene gfp-luc under the control of the csp promotor (PBANKA_0403200) integrated into the silent 230p gene locus (PBANKA_0306000), and the transgenic parasite line PbFluo-frmg (RMgm-164), which expresses GFP under control of the ‘male gametocyte-specific’ promoter of PB000791.03.0 (dynein heavy chain, putative) and RFP under the control of the ‘female gametocyte-specific’ promoter PB000504.02.0 (LCCL domain-containing protein CCP2). The rfp and gfp genes are integrated into the genome in the 230p locus (PBANKA_0306000).
In order to assess the in vivo activity of Iv, five BALB/cByJ (Charles River) mice per experimental group were infected by intraperitoneal injection of 10^7 P. berghei Fluo-frmg-infected red blood cells. Parasitaemia and gametocyteamia were measured the following days by flow cytometry analysis of 4 µl of tail blood. Blood was collected in 200 µl of PBS and 100 µl stored at 4 °C, while the remaining was transferred to 100 µl of PBS containing […] of red fluorescent nucleic acid stain Syto®61 (Thermo Fisher Scientific, Waltham, USA) and incubated for 20 min at room temperature in the dark. The samples were analysed on a LSRFortessa X-20 flow cytometer (Becton, Dickinson and Co., New Jersey, USA). Female and male gametocytes were gated based on the analysis of GFP and Red Fluorescence Protein (RFP) fluorescence, and parasitemia was estimated based on the analysis of Syto®61 and forward scatter. The positive cell population was determined by comparison of infected blood samples with an uninfected blood sample. Results were then analysed with the FlowJo^TM Software (Version 10, FlowJo^TM Software, Ashland, USA). Exflagellation was also monitored every day, until parasitemia reached 3% by microscopy analysis. To this end, 2.5 µl of tail blood were collected and mounted on a glass slide, and 8 min later the number of exflagellation events present in 4 independent fields of vision at 40× were determined. When parasitemia reached up to 3%, either DMSO or ivermectin were administered by oral gavage, at a concentration of 5 mg/kg, to five mice of each experimental group. Parasitemia, gametocytemia and exflagellation were monitored for 3 days after treatment, following which the mice were euthanized, and the experiment was terminated.

[4] = tested on: P. berghei ookinete formation; test: Bioluminescence assay of ookinete formation in vitro; type: cell-based, Plasmodium berghei; conditions: 10 µM, 24 h
Method: Plasmodium berghei ANKA expressing green fluorescent protein (GFP) and luciferase under the control of the circumsporozoite protein (CSP) promoter (line 784cl1, RMgm-152, PbCSPGFP-Luc) was maintained in Anopheles stephensi mosquitoes and BALB/cByJ mice. To maintain gametocyte infectivity, only up to six passages of parasites from infected to naïve mice were performed. Ookinete in vitro production was performed as previously described. Briefly, BALB/cByJ mice were treated with 0.1 ml phenylhydrazine (25 mg/ml) 3 days prior to infection with 10^7 P. berghei-infected red blood cells (iRBC) obtained from a donor mouse. On the third day after infection, gametocytemia was monitored by light microscopy for the presence of exflagellating gametocytes in ookinete medium (1:4 dilution). […]
A bioluminescence assay was used to assess the development of the mosquito stages of PbCSGFP-Luc. […] Fifty µl of D-luciferin in Firefly luciferase assay buffer (1:50 ratio) were added to the samples and parasite load was determined by measuring luminescence intensity using a microplate reader (Tecan Infinite M200, Zurich, Switzerland).
The effect of eprinomectin, abamectin, ivermectin, moxidectin, doramectin and emamectin on the Plasmodium mosquito stages was evaluated as previously described. […] The effect of 10 µM of each compound was assessed on ookinetes, and on oocyst development and maturation. […]

[5] = tested on: Drosophila melanogaster S2 cells; test: AlamarBlue in vitro cytotoxicity assay; type: cell-based; conditions: 10 µM, up to 7 days
Method: Compounds were screened for their in vitro cytotoxicity against D. melanogaster S2 cells, using the AlamarBlue® assay (Invitrogen, Carlsbad, USA). This assay allows to measure metabolic activity based on a fluoremetric/colorimetric indicator [28]. To assess the effect of the compounds on cell development, Drosophila melanogaster S2 cells were seeded in a 1:10 ratio (10^5 S2 cells) in Schneider’s medium (S0146, Sigma-Aldrich) supplemented with 15% FBS, penicillin/streptomycin (50 U/ml, 50 µg/ml) and gentamicin (50 µg/ml). All the above-mentioned compounds were added to the S2 cell cultures to a final concentration of 10 µM and the amount of DMSO equivalent to that present in the highest compound concentration was used as a control. Cultures were maintained for 7 days and one-quarter of the medium was changed 3 times per week every 48 to 72 h. Samples were collected every day by removing 120 µl of medium and adding 80 µl of AlamarBlue previously diluted in Schneider’s medium (1:10 dilution) to each well. The suspension was transferred to a 96 well flat bottom plate and incubated for one and a half hours at 37 °C. Fluorescence intensity was then measured using a microplate reader (Tecan Infinite M200) at 530 nm excitation wavelength/590 nm emission wavelength to determine cell viability.

| Molecule | IC50 [1] [µM] | IC50 [2] [µM] | inhibition of ookinete formation (transformation of gametes/zygote into ookinetes) [4] | further results |
| --- | --- | --- | --- | --- |
| abamectin | 7.93 | 8.77 |  |  |
| eprinomectin | 4.59 | 5.7 |  |  |
| ivermectin | 9.32 | 11.6 | very small and non-significant impact | exflagellation events vs untreated controls [3]: no statistically significant differences; female gametocytemia vs untreated controls [3]: no statistically significant differences; male gametocytemia vs untreated controls [3]: no statistically significant differences; overall parasitemia vs untreated controls [3]: no statistically significant differences |
| CO[C@H]1C[C@H](O[C@H]2[C@H](C)O[C@@H](O[C@@H]3/C(C)=C/C[C@@H]4C[C@@H](C[C@]5(C=C[C@H](C)[C@@H](C6CCCCC6)O5)O4)OC(=O)[C@@H]4C=C(C)[C@@H](O)[C@H]5OC/C(=C\C=C\[C@@H]3C)[C@]54O)C[C@@H]2OC)O[C@@H](C)[C@@H]1O [Doramectin, doramectin] | 4.32 | 7.08 |  |  |
| CO/N=C1\C[C@]2(C[C@@H]3C[C@@H](C/C=C(\C)C[C@@H](C)/C=C/C=C4\CO[C@@H]5[C@H](O)C(C)=C[C@@H](C(=O)O3)[C@]45O)O2)O[C@H](/C(C)=C/C(C)C)[C@H]1C [Moxidectin, moxidectin] |  |  |  | IC50 ([1]; Plasmodium berghei): 5.49 µM; IC50 ([2]; Plasmodium berghei): 10.8 µM |
| emamectin | 7.36 | 7.31 | approximately 47% | cytotoxicity against S2 cells (cell viability) [5]: displays some cytotoxicity |
